In patent US10087166B2, “Cyclic amine azaheterocyclic carboxamides” (Merck Patent GmbH, priority 2010, dated 2018):

target: T1, P70S6K (Homo sapiens, UniProt P23443, T412E); assay: P70S6K enzyme assay; assay type: biochemical; settings: P70S6K T412E mutant 3 nM, 24 μM ATP, FITC-AHA-AKRRRLSSLRA-OH substrate, 90 min at 25° C.; read-out: IC50p70S6K
T1 construct: purchased Millipore
Outline: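 T412E mutant enzyme (3 nM) with 24 μM ATP and 1 μM FITC-labelled S6-derived peptide in Hepes pH 7.5, MgCl2, DTT, Brij; 90 min at 25° C, EDTA stop. Phosphorylated product and substrate separated by microfluidic mobility shift; IC50 determined.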

T1 sequence (P23443 whole entry T412E): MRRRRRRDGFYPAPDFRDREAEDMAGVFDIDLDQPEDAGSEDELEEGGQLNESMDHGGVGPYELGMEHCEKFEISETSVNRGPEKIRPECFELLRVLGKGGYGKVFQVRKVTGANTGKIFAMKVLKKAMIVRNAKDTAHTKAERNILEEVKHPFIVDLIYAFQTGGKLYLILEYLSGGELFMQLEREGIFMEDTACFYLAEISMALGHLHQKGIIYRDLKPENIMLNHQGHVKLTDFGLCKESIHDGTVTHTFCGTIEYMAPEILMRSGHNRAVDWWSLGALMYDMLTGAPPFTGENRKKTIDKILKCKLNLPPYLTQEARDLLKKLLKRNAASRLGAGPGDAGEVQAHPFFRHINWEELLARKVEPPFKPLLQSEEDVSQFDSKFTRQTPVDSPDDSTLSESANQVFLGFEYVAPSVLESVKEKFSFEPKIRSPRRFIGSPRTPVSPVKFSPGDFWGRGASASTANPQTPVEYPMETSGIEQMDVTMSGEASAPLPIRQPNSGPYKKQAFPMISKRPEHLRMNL

SMILES | IC50
N#Cc1cccc([C@@H]2CNC[C@H]2Nc2ncnc3c(C(N)=O)cccc23)c1 [compound 88, 4-(((3S,4R)-4-(3-cyanophenyl)pyrrolidin-3-yl)amino)quinazoline-8-carboxamide] | 2.4 nM
NC(=O)c1cccc2c(N[C@H]3CNC[C@@H]3c3ccc4c(c3)CCO4)ncnc12 [compound 90, 4-(((3R,4S)-4-(2,3-dihydrobenzofuran-5-yl)pyrrolidin-3-yl)amino)quinazoline-8-carboxamide] | 4 nM
NC(=O)c1cccc2c(N[C@@H]3CNC[C@H]3c3ccc4c(c3)CCO4)ncnc12 [compound 91, 4-(((3S,4R)-4-(2,3-dihydrobenzofuran-5-yl)pyrrolidin-3-yl)amino)quinazoline-8-carboxamide] | 53 nM
Cc1c(F)cccc1[C@H]1CNC[C@@H]1Nc1ncnc2c(C(N)=O)cccc12 [compound 93, 4-(((3R,4S)-4-(3-fluoro-2-methylphenyl)pyrrolidin-3-yl)amino)quinazoline-8-carboxamide] | 1.2 nM
Cc1c(F)cccc1[C@@H]1CNC[C@H]1Nc1ncnc2c(C(N)=O)cccc12 [compound 94, 4-(((3S,4R)-4-(3-fluoro-2-methylphenyl)pyrrolidin-3-yl)amino)quinazoline-8-carboxamide] | 52 nM
NC(=O)c1cccc2c(N[C@H]3CNC[C@@H]3c3cccc(Cl)c3)ncnc12 [compound 95, 4-(((3R,4S)-4-(3-chlorophenyl)pyrrolidin-3-yl)amino)quinazoline-8-carboxamide] | 48 nM
COc1ccc([C@@H]2CNC[C@H]2Nc2ncnc3c(C(N)=O)cccc23)cc1 [compound 96, 4-(((3S,4R)-4-(4-methoxyphenyl)pyrrolidin-3-yl)amino)quinazoline-8-carboxamide] | 4.1 nM
COc1ccc([C@H]2CNC[C@@H]2Nc2ncnc3c(C(N)=O)cccc23)cc1 [compound 97, 4-(((3R,4S)-4-(4-methoxyphenyl)pyrrolidin-3-yl)amino)quinazoline-8-carboxamide] | 81 nM
NC(=O)c1cccc2c(N[C@@H]3CNC[C@H]3c3ccc(Cl)c(F)c3)ncnc12 [compound 101, 4-(((3S,4R)-4-(4-chloro-3-fluorophenyl)pyrrolidin-3-yl)amino)quinazoline-8-carboxamide] | 1.1 nM
NC(=O)c1cccc2c(N[C@@H]3CNC[C@H]3c3cc(F)c(F)cc3F)ncnc12 [compound 106, 4-(((3S,4R)-4-(2,4,5-trifluorophenyl)pyrrolidin-3-yl)amino)quinazoline-8-carboxamide] | 2.8 nM
NC(=O)c1cccc2c(N[C@H]3CNC[C@@H]3c3ccc(Cl)c(F)c3)ncnc12 [compound 112, 4-(((3R,4S)-4-(4-chloro-3-fluorophenyl)pyrrolidin-3-yl)amino)quinazoline-8-carboxamide] | 330 nM
NC(=O)c1cccc2c(N[C@@H]3CNCC[C@H]3c3ccc(C(F)(F)F)cc3)ncnc12 [compound 128] | 230 nM
NC(=O)c1cccc2c(N[C@H]3CNCC[C@@H]3c3ccc(C(F)(F)F)cc3)ncnc12 [compound 129, 4-(((3R,4R)-4-(4-(trifluoromethyl)phenyl)piperidin-3-yl)amino)quinazoline-8-carboxamide] | 1.2 nM
NC(=O)c1cccc2c(N[C@H]3CNCC[C@@H]3c3cccc(C(F)(F)F)c3)ncnc12 [compound 130, 4-(((3R,4R)-4-(3-(trifluoromethyl)phenyl)piperidin-3-yl)amino)quinazoline-8-carboxamide] | 1.2 nM
NC(=O)c1cccc2c(N[C@@H]3CNCC[C@H]3c3cccc(C(F)(F)F)c3)ncnc12 [compound 131, 4-(((3S,4S)-4-(3-(trifluoromethyl)phenyl)piperidin-3-yl)amino)quinazoline-8-carboxamide] | 160 nM
